Assay type: physicochemical
Text: Desferrioxamine B is a commercially available iron chelating drug, desferal®. […] (1980). […] 89, p.

selectivity: difference between the log stability constants	SMILES
26.8	O=C(NCCCCN(CCCNC(=O)c1cc(S(=O)(=O)O)cc(O)c1O)C(=O)c1cc(S(=O)(=O)O)cc(O)c1O)c1cc(S(=O)(=O)O)cc(O)c1O [3,4-LICAMS]
17.2	O=C(O)CN(CCN(CC(=O)O)CC(=O)O)CCN(CC(=O)O)CC(=O)O [DTPA, diethylenetriaminepentaacetic acid]

— US7311933B2, “Packaging material for inhibiting microbial growth” (Eastman Kodak Company, priority 2004, dated 2007)
